In patent publication US7582611B2, “Motilide compounds” (Pfizer Inc., priority 2005, dated 2009):
Values after ≈ are worked out from the molar mass of the structure shown. Read-outs that look alike come from different tables or passages of the source.

Key:
Motilin Receptor = target: T1, Motilin Receptor (Oryctolagus cuniculus, UniProt G1T803); test: Tissue based assay for motilin agonist potency (rabbit duodenum contractility); type: cell-based
T1 construct: strips of longitudinal smooth muscle were sliced from the segments; from tissue; host or cells: rabbit duodenum longitudinal smooth muscle strips
Description: The motilin agonist potencies of compounds of this invention were evaluated using a tissue based assay, using rabbit duodenum tissue-based contractility assay, generally following the procedure of Depoortere et al., J. Gastrointestinal Motility, 1, 150-159 (1989), the disclosure of which is incorporated herein by reference. Briefly, this method measures the ability of a compound to induce contractions in rabbit duodenal tissue, a motilin receptor-bearing tissue contractilely responsive to motilin.
Strips of rabbit duodenum were tested and qualified for use in the assay by as follows. Segments of rabbit duodenum, 20-30 cm distal to the pylorus were split longitudinally. The mucosa was removed and 2×2×15 mm strips of longitudinal smooth muscle were sliced from the segments. The strips were bathed in oxygenated Krebs solution at 37° C., with 1.5 g of tension, and contractions measured auxotonically.
The carbachol was then washed away by changing the organ bath buffer twice. The strips were washed again 20±5 minutes following the carbachol contraction. Following this last wash a dose response study was initiated within 10±5 min. Each compound tested was dissolved in dimethylsulfoxide (DMSO) to a final concentration of 10 mM. A series of seven 10× serial dilutions in water was prepared, so that the concentration of the seventh serial dilution was 1.0×10^−6 mM. The first through fifth serial dilutions of the compound were applied, starting with 200 μL of the most dilute solution. After each application, there was a wait of 2±0.5 min, until the response was stable, before the application of the next dose (the next higher concentration serial dilution). The dose was increased in 10-fold increments until a small response was observed. Subsequent doses were the increased in 2- to 5-fold increments, until the maximum response was obtained. At 2±0.5 min after the last drug addition, the strips were dosed with 1 μM carbachol.
The EC50 (concentration producing a half-maximal effect) was calculated as follows. The basal tension was subtracted from the compound-induced tension for each reading. The data points were normalized against the response obtained from 1 μM carbachol at the end of the experiment. The concentration of compound was plotted against the response and fitted to the following equation: R=(Rmax·C)/(EC50+C) where R is the contraction response, Rmax is the maximal contraction response, and C is the concentration of compound. Both R and Rmax are expressed as a fraction of the 1 μM carbachol contraction and range from 0 to 1.

[1] = test system: Streptococcus pneumoniae ATCC 6301; test: Evaluation of antibacterial activity (MIC, serial dilutions on 96-well microtiter plates); type: cell-based; conditions: ATCC6301, read-out: Antibacterial Activity (MIC, μg/mL)
[2] = rabbit duodenum strips, contraction normalized to 1 μM carbachol, read-out: Motilin Receptor Agonist Activity (EC50)

T1 sequence (G1T803 1-400): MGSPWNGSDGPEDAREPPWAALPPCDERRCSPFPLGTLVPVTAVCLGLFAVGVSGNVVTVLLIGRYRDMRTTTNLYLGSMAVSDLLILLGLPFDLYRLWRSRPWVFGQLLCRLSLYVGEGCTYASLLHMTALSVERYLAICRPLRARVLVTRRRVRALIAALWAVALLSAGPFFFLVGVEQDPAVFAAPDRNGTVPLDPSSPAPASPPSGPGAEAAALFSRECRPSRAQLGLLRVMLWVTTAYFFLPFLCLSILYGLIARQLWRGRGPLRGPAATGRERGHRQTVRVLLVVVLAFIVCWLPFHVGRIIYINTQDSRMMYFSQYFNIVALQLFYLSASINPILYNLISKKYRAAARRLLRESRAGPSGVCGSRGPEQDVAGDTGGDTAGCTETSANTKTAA

Structure (SMILES) | EC50 (Motilin Receptor; [2]) [nM] | MIC [1] [µg/mL] | EC50 (Motilin Receptor) [nM]
CC[C@H]1OC(=O)[C@H](C)[C@@H](O[C@H]2C[C@@](C)(OC)[C@@H](O)[C@H](C)O2)[C@H](C)[C@@H](O[C@@H]2O[C@H](C)C[C@H](N(C)C(C)C)[C@H]2O)[C@](C)(O)C[C@@H](C)[C@H](OCc2csc(C)n2)[C@H](C)[C@@H](O)[C@]1(C)O [Compound A-26] | 480 | 128 (≈ 146 µM) | 
CC[C@H]1OC(=O)[C@H](C)[C@@H](O[C@H]2C[C@@](C)(OC)[C@@H](O)[C@H](C)O2)[C@H](C)[C@@H](O[C@@H]2O[C@H](C)C[C@H](N(C)C3CCC3)[C@H]2O)[C@](C)(O)C[C@@H](C)[C@H](OC(C)=O)[C@H](C)[C@@H](O)[C@]1(C)O [Compound A-24] | 860 | > 128 | 
CC[C@H]1OC(=O)[C@H](C)[C@@H](O[C@H]2C[C@@](C)(OC)[C@@H](O)[C@H](C)O2)[C@H](C)[C@@H](O[C@@H]2O[C@H](C)C[C@H](N(C)C(C)C)[C@H]2O)[C@](C)(O)C[C@@H](C)[C@H](OCC(=O)NC2CCOCC2)[C@H](C)[C@@H](O)[C@]1(C)O [Compound A-33] | 120 | > 128 | 
CC[C@H]1OC(=O)[C@H](C)[C@@H](O[C@H]2C[C@@](C)(OC)[C@@H](O)[C@H](C)O2)[C@H](C)[C@@H](O[C@@H]2O[C@H](C)C[C@H](N(C)C(C)C)[C@H]2O)[C@](C)(O)C[C@@H](C)[C@H](OCCF)[C@H](C)[C@@H](O)[C@]1(C)O [Compound A-49] |  | 128 (≈ 158 µM) | 140
CC[C@H]1OC(=O)[C@H](C)[C@@H](O[C@H]2C[C@@](C)(OC)[C@@H](O)[C@H](C)O2)[C@H](C)[C@@H](O[C@@H]2O[C@H](C)C[C@H](N(C)C3CCC3)[C@H]2O)[C@](C)(O)C[C@@H](C)[C@H](NS(=O)(=O)C2CC2)[C@H](C)[C@@H](O)[C@]1(C)O [Compound A-42] | 340 | > 128 | 
CC[C@H]1OC(=O)[C@H](C)[C@@H](O[C@H]2C[C@@](C)(OC)[C@@H](O)[C@H](C)O2)[C@H](C)[C@@H](O[C@@H]2O[C@H](C)C[C@H](N(C)CC(C)(C)O)[C@H]2O)[C@](C)(O)C[C@@H](C)[C@H](NS(C)(=O)=O)[C@H](C)[C@@H](O)[C@]1(C)O [Compound A-37] | 52 | 64 (≈ 73.5 µM) | 
CC[C@H]1OC(=O)[C@H](C)[C@@H](O[C@H]2C[C@@](C)(OC)[C@@H](O)[C@H](C)O2)[C@H](C)[C@@H](O[C@@H]2O[C@H](C)C[C@H](N(C)C(C)C)[C@H]2O)[C@](C)(O)C[C@@H](C)[C@H](OCC(=O)NC2CC2)[C@H](C)[C@@H](O)[C@]1(C)O [Compound A-46] | 31 | 128 (≈ 149 µM) | 
CC[C@H]1OC(=O)[C@H](C)[C@@H](O[C@H]2C[C@@](C)(OC)[C@@H](O)[C@H](C)O2)[C@H](C)[C@@H](O[C@@H]2O[C@H](C)C[C@H](N(C)C3CCC3)[C@H]2O)[C@](C)(O)C[C@@H](C)[C@H](OCC(N)=O)[C@H](C)[C@@H](O)[C@]1(C)O [Compound A-13] | 220 | > 128 | 
CC[C@H]1OC(=O)[C@H](C)[C@@H](O[C@H]2C[C@@](C)(OC)[C@@H](O)[C@H](C)O2)[C@H](C)[C@@H](O[C@@H]2O[C@H](C)C[C@H](N(C)C(C)C)[C@H]2O)[C@](C)(O)C[C@@H](C)[C@H](OCCO)[C@H](C)[C@@H](O)[C@]1(C)O [Compound A-3] | 54 | 64 (≈ 79.2 µM) | 
CC[C@H]1OC(=O)[C@H](C)[C@@H](O[C@H]2C[C@@](C)(OC)[C@@H](O)[C@H](C)O2)[C@H](C)[C@@H](O[C@@H]2O[C@H](C)C[C@H](N(C)C(C)C)[C@H]2O)[C@](C)(O)C[C@@H](C)[C@H](OCC(=O)N(C)C)[C@H](C)[C@@H](O)[C@]1(C)O [Compound A-15] | 660 | 64 (≈ 75.4 µM) | 
CC[C@H]1OC(=O)[C@H](C)[C@@H](O[C@H]2C[C@@](C)(OC)[C@@H](O)[C@H](C)O2)[C@H](C)[C@@H](O[C@@H]2O[C@H](C)C[C@H](N(C)C3CCC3)[C@H]2O)[C@](C)(O)C[C@@H](C)[C@H](OCC(=O)NC)[C@H](C)[C@@H](O)[C@]1(C)O [Compound A-51] | 510 | > 128 | 
CC[C@H]1OC(=O)[C@H](C)[C@@H](O[C@H]2C[C@@](C)(OC)[C@@H](O)[C@H](C)O2)[C@H](C)[C@@H](O[C@@H]2O[C@H](C)C[C@H](N(C)C(C)C)[C@H]2O)[C@](C)(O)C[C@@H](C)[C@H](OCC(=O)NCCO)[C@H](C)[C@@H](O)[C@]1(C)O [Compound A-34] | 120 | 128 (≈ 148 µM) | 
CCC(=O)O[C@@H]1[C@H](C)[C@@H](O)[C@](C)(O)[C@@H](CC)OC(=O)[C@H](C)[C@@H](O[C@H]2C[C@@](C)(OC)[C@@H](O)[C@H](C)O2)[C@H](C)[C@@H](O[C@@H]2O[C@H](C)C[C@H](N(C)C3CCC3)[C@H]2O)[C@](C)(O)C[C@H]1C [Compound A-25] | 1200 | > 128 | 

More lines, main results first:

EC50 (Motilin Receptor; [2]) [nM] | MIC [1] [µg/mL] | Structure (SMILES) | EC50 (Motilin Receptor) [nM]
100 | 64 (≈ 72.8 µM) | CCOC(=O)NCCO[C@@H]1[C@H](C)[C@@H](O)[C@](C)(O)[C@@H](CC)OC(=O)[C@H](C)[C@@H](O[C@H]2C[C@@](C)(OC)[C@@H](O)[C@H](C)O2)[C@H](C)[C@@H](O[C@@H]2O[C@H](C)C[C@H](N(C)C(C)C)[C@H]2O)[C@](C)(O)C[C@H]1C [Compound A-64] | 
54 | > 128 | CC[C@H]1OC(=O)[C@H](C)[C@@H](O[C@H]2C[C@@](C)(OC)[C@@H](O)[C@H](C)O2)[C@H](C)[C@@H](O[C@@H]2O[C@H](C)C[C@H](N(C)C(C)C)[C@H]2O)[C@](C)(O)C[C@@H](C)[C@H](OCc2nc[nH]n2)[C@H](C)[C@@H](O)[C@]1(C)O [Compound A-55] | 
100 | > 128 | CCNC(=O)NCCO[C@@H]1[C@H](C)[C@@H](O)[C@](C)(O)[C@@H](CC)OC(=O)[C@H](C)[C@@H](O[C@H]2C[C@@](C)(OC)[C@@H](O)[C@H](C)O2)[C@H](C)[C@@H](O[C@@H]2O[C@H](C)C[C@H](N(C)C(C)C)[C@H]2O)[C@](C)(O)C[C@H]1C [Compound A-54] | 
84 | 128 (≈ 148 µM) | CC[C@H]1OC(=O)[C@H](C)[C@@H](O[C@H]2C[C@@](C)(OC)[C@@H](O)[C@H](C)O2)[C@H](C)[C@@H](O[C@@H]2O[C@H](C)C[C@H](N(C)C(C)C)[C@H]2O)[C@](C)(O)C[C@@H](C)[C@H](OCCCC(=O)NC)[C@H](C)[C@@H](O)[C@]1(C)O [Compound A-73] | 
150 | 128 (≈ 144 µM) | CC[C@H]1OC(=O)[C@H](C)[C@@H](O[C@H]2C[C@@](C)(OC)[C@@H](O)[C@H](C)O2)[C@H](C)[C@@H](O[C@@H]2O[C@H](C)C[C@H](N(C)C(C)C)[C@H]2O)[C@](C)(O)C[C@@H](C)[C@H](OCCCCCC(=O)NC)[C@H](C)[C@@H](O)[C@]1(C)O [Compound A-76] | 
190 | 128 (≈ 154 µM) | CC[C@H]1OC(=O)[C@H](C)[C@@H](O[C@H]2C[C@@](C)(OC)C[C@H](C)O2)[C@H](C)[C@@H](O[C@@H]2O[C@H](C)C[C@H](N(C)C(C)C)[C@H]2O)[C@](C)(O)C[C@@H](C)[C@H](OCC(=O)N(C)C)[C@H](C)[C@@H](O)[C@]1(C)O [Compound A-60] | 
79 | 128 (≈ 140 µM) | CC[C@H]1OC(=O)[C@H](C)[C@@H](O[C@H]2C[C@@](C)(OC)[C@@H](O)[C@H](C)O2)[C@H](C)[C@@H](O[C@@H]2O[C@H](C)C[C@H](N(C)C(C)C)[C@H]2O)[C@](C)(O)C[C@@H](C)[C@H](OCC(=O)NCc2ccccc2)[C@H](C)[C@@H](O)[C@]1(C)O [Compound A-59] | 
210 | 128 (≈ 141 µM) | CCCNC(=S)NCCO[C@@H]1[C@H](C)[C@@H](O)[C@](C)(O)[C@@H](CC)OC(=O)[C@H](C)[C@@H](O[C@H]2C[C@@](C)(OC)[C@@H](O)[C@H](C)O2)[C@H](C)[C@@H](O[C@@H]2O[C@H](C)C[C@H](N(C)C(C)C)[C@H]2O)[C@](C)(O)C[C@H]1C [Compound A-57] | 
160 | 128 (≈ 142 µM) | CC[C@H]1OC(=O)[C@H](C)[C@@H](O[C@H]2C[C@@](C)(OC)[C@@H](O)[C@H](C)O2)[C@H](C)[C@@H](O[C@@H]2O[C@H](C)C[C@H](N(C)C(C)C)[C@H]2O)[C@](C)(O)C[C@@H](C)[C@H](OCC(=O)NCC(F)(F)F)[C@H](C)[C@@H](O)[C@]1(C)O [Compound A-52] | 
270 | > 128 | CC[C@H]1OC(=O)[C@H](C)[C@@H](O[C@H]2C[C@@](C)(OC)[C@@H](O)[C@H](C)O2)[C@H](C)[C@@H](O[C@@H]2O[C@H](C)C[C@H](N(C)C(C)C)[C@H]2O)[C@](C)(O)C[C@@H](C)[C@H](OCC(=O)N(C)C)[C@H](C)[C@@H](O)[C@H]1C [Compound A-72] | 
